Reference: patent US20150219624A1, “METHODS FOR IDENTIFYING ANTI-CANCER COMPOUNDS” (MEMORIAL SLOAN KETTERING CANCER CENTER, priority 2013, published 2015)

Assays:
[1] = tested on: human T-ALL lines; experiment: Activity in established human T-ALL cell lines; assay type: cell-based; settings: PTEN wild type vs PTEN mutant
[2] = tested on: KOPTK1 cells; experiment: Transcriptome-scale ribosome footprinting (translational efficiency, rDiff ribosome distribution); assay type: cell-based, human; settings: for log2(Translational Efficiency): TE down genes with G-Quadruplex structure
Experimental: Ribosome Footprinting. KOPTK1 cells were treated with silvestrol or DMSO for 45 minutes, followed by cycloheximide treatment for 10 minutes and then harvested for total RNA and ribosome footprint fragment isolation. Total RNA was isolated using RNA isolation kit from Qiagen (74104) and subjected to RNA sequencing. Ribosome protected fragments were isolated following published protocol (Ingolia et al., 2009). Briefly cell lysates were subjected to ribosome footprinting by nuclease treatment. Footprint fragments were purified by one step sucrose cushion and gel extraction. Deep sequencing libraries were generated from these fragments. Both total RNA and footprint fragment libraries were analyzed by sequencing on the HiSeq 2000 platform.
Sequence Alignment. Sequences were aligned to the transcripts available from the human genome sequence hg19 from UCSC public database. Ribosome footprint (RF) reads were aligned to reference genome hg19 using PALMapper (Jean et al., 2010). Only the uniquely aligned reads were used for analysis. Read length of 25- to 35-bp was selected and used to analyze the translation effect of silvestrol. Total mRNA sequencing reads were aligned to the hg19 reference using STAR (Dobin et al., 2013). The splice alignment was used, and only used the uniquely aligned reads with maximum 3 mismatches.
Footprint Profile Analysis. The genome annotation was from GENCODE project (http://www.gencodegenes.org/releases/14.html). Ribosome footprint intensity (reads per million, RPM) and the expression value (reads per kilobase per million, RPKM) were measured from total mRNA-seq data and translation values were measured from ribosome footprint data. To evaluate the translation efficiency (TE) change between silvestrol- and vehicle-treated samples, TE was calculated as RPKMfootprint/RPKMmRNA (as Thoreen et al. did recently (Thoreen et al., 2012)). Changes in ribosome footprint profiles were determined by using DEXSeq algorithm (Anders et al., 2012). DEXSeq accounts for the discrete nature of the read counts and models biological variability to avoid false positives. Ratio of TEsilvestrol/TEcontrol of all the genes was plotted and color-highlighted according to the statistical significance of DEXSeq test.
Ribosome distribution analysis. The ribosomal distribution change was evaluated between silvestrol treated samples and controls. A BED file containing all non-overlapped exonic regions was generated based on genome annotation. Then the BED file and footprint BAM files were given as an input to SAMTOOLS (Li et al., 2009a) to generate new BAM files that only included exonic alignment. The exonic BAM files were input for two conditions to rDiff (Drewe et al., 2013) to identify genes that presented significant change in ribosomal distribution.
Sequence Alignment. The human genome sequence hg19 was downloaded from UCSC public database: http://hgdownload.cse.ucsc.edu/goldenPath/hg19/chromosomes. Ribosome footprint (RF) reads were aligned to reference genome hg19 using PALMapper (Jean et al., 2010). PALMapper clips the linker sequence (5′-[…]-3′), which is technically introduced during RF library construction, and trims the remaining sequence from the 3′ end while aligning the reads to reference sequence. Briefly, the parameters for PALMapper were set as follows: maximum number of mismatches: 2; maximum number of gaps: 0; minimum aligning length: 15; maximum intron length (splice alignment): 10000; minimum length of a splicing read aligned to either side of the intron boundary: 10. Only the uniquely aligned reads were used for further analysis.
To remove ribosome RNA contamination, the footprint reads were also aligned to a ribosome sequence database using PALMapper with the same parameters except allowing splice alignment. […]

Q: Which results are given for COC(=O)[C@H]1[C@@H](O)[C@@]2(O)c3c(OC)cc(O[C@@H]4O[C@@H]([C@H](O)CO)CO[C@H]4OC)cc3O[C@@]2(c2ccc(OC)cc2)[C@@H]1c1ccccc1 [silvestrol]?
A: activity against PTEN wild type and PTEN mutant cell lines and primary T-ALL cells [1]: equal activity; effect on cap-dependent translation (ribosome footprints) ([2]; 25 nM, 45 minutes): immediate and broad inhibitory effect; log2(Translational Efficiency) ([2]; gene ADAM10 (ENSG00000137845)): −0.2089; log2(Translational Efficiency) ([2]; gene AFTPH (ENSG00000119844)): −0.5917; log2(Translational Efficiency) ([2]; gene ATP2B4 (ENSG00000058668)): −0.3028; log2(Translational Efficiency) ([2]; gene BCL11B (ENSG00000127152)): −0.5178; log2(Translational Efficiency) ([2]; gene C16orf72 (ENSG00000182831)): −0.2553; log2(Translational Efficiency) ([2]; gene CAMK2D (ENSG00000145349)): −0.4082; log2(Translational Efficiency) ([2]; gene CCRN4L (ENSG00000151014)): −0.4802; log2(Translational Efficiency) ([2]; gene CDIPT (ENSG00000103502)): −0.324; log2(Translational Efficiency) ([2]; gene CERS6 (ENSG00000172292)): −0.2051; log2(Translational Efficiency) ([2]; gene CHIC2 (ENSG00000109220)): −0.5212; log2(Translational Efficiency) ([2]; gene CHST11 (ENSG00000171310)): −0.146; log2(Translational Efficiency) ([2]; gene CPSF4 (ENSG00000160917)): −0.3194; log2(Translational Efficiency) ([2]; gene DIAPH1 (ENSG00000131504)): −0.2136; log2(Translational Efficiency) ([2]; gene DOM3Z (ENSG00000204348)): −0.5959; log2(Translational Efficiency) ([2]; gene DYNLL2 (ENSG00000121083)): −0.1378; log2(Translational Efficiency) ([2]; gene EP300 (ENSG00000100393)): −0.4645; log2(Translational Efficiency) ([2]; gene FAM49B (ENSG00000153310)): −0.1392; log2(Translational Efficiency) ([2]; gene FKRP (ENSG00000181027)): −0.996; log2(Translational Efficiency) ([2]; gene FOXJ2 (ENSG00000065970)): −0.4735; log2(Translational Efficiency) ([2]; gene GABARAPL1 (ENSG00000139112)): −1.234; log2(Translational Efficiency) ([2]; gene GIPC1 (ENSG00000123159)): −0.4783; log2(Translational Efficiency) ([2]; gene GNB1 (ENSG00000078369)): −0.1338; log2(Translational Efficiency) ([2]; gene GYG2 (ENSG00000056998)): −0.9297; log2(Translational Efficiency) ([2]; gene HDGFRP3 (ENSG00000166503)): −0.6088; log2(Translational Efficiency) ([2]; gene HIPK1 (ENSG00000163349)): −0.2827; log2(Translational Efficiency) ([2]; gene ITPR1 (ENSG00000150995)): −0.6283; log2(Translational Efficiency) ([2]; gene MAP3K2 (ENSG00000169967)): −0.377; log2(Translational Efficiency) ([2]; gene MAPKAPK2 (ENSG00000162889)): −0.3527; log2(Translational Efficiency) ([2]; gene MBNL1 (ENSG00000152601)): −0.1522; log2(Translational Efficiency) ([2]; gene MED13 (ENSG00000108510)): −0.2939; log2(Translational Efficiency) ([2]; gene MED13L (ENSG00000123066)): −0.4159; log2(Translational Efficiency) ([2]; gene MGRN1 (ENSG00000102858)): −0.3096; log2(Translational Efficiency) ([2]; gene MTA2 (ENSG00000149480)): −0.2235; log2(Translational Efficiency) ([2]; gene MYO9A (ENSG00000066933)): −0.4735; log2(Translational Efficiency) ([2]; gene NANS (ENSG00000095380)): −0.3218; log2(Translational Efficiency) ([2]; gene NDFIP1 (ENSG00000131507)): −0.2429; log2(Translational Efficiency) ([2]; gene PABPC4 (ENSG00000090621)): −0.2428; log2(Translational Efficiency) ([2]; gene PAFAH1B1 (ENSG00000007168)): −0.3832; log2(Translational Efficiency) ([2]; gene PAFAH1B2 (ENSG00000168092)): −0.3883; log2(Translational Efficiency) ([2]; gene PAIP2 (ENSG00000120727)): −0.1573; log2(Translational Efficiency) ([2]; gene PAK4 (ENSG00000130669)): −0.628; log2(Translational Efficiency) ([2]; gene PANX1 (ENSG00000110218)): −0.3987; log2(Translational Efficiency) ([2]; gene PATZ1 (ENSG00000100105)): −0.3245; log2(Translational Efficiency) ([2]; gene PPP6R1 (ENSG00000105063)): −0.1576; log2(Translational Efficiency) ([2]; gene PTGER4 (ENSG00000171522)): −0.2748; log2(Translational Efficiency) ([2]; gene PTP4A2 (ENSG00000184007)): −0.1429; log2(Translational Efficiency) ([2]; gene QKI (ENSG00000112531)): −0.2913; log2(Translational Efficiency) ([2]; gene RFXANK (ENSG00000064490)): −0.3247; log2(Translational Efficiency) ([2]; gene RNF4 (ENSG00000063978)): −0.3442; log2(Translational Efficiency) ([2]; gene RNF19A (ENSG00000034677)): −0.4839; log2(Translational Efficiency) ([2]; gene RPS12 (ENSG00000112306)): −0.1732; log2(Translational Efficiency) ([2]; gene SHISA2 (ENSG00000180730)): −0.6086; log2(Translational Efficiency) ([2]; gene SLC25A22 (ENSG00000177542)): −0.3386; log2(Translational Efficiency) ([2]; gene SLC35B3 (ENSG00000124786)): −0.9178; log2(Translational Efficiency) ([2]; gene SMEK1 (ENSG00000100796)): −0.1765; log2(Translational Efficiency) ([2]; gene SRRM2 (ENSG00000167978)): −0.08166; log2(Translational Efficiency) ([2]; gene STAG2 (ENSG00000101972)): −0.1873; log2(Translational Efficiency) ([2]; gene TAF6 (ENSG00000106290)): −0.2102; log2(Translational Efficiency) ([2]; gene TBC1D24 (ENSG00000162065)): −1.231; log2(Translational Efficiency) ([2]; gene TGFB1 (ENSG00000105329)): −0.2213; log2(Translational Efficiency) ([2]; gene TLE3 (ENSG00000140332)): −0.2278; log2(Translational Efficiency) ([2]; gene TMEM248 (ENSG00000106609)): −0.2362; log2(Translational Efficiency) ([2]; gene TNRC6B (ENSG00000100354)): −0.4442; log2(Translational Efficiency) ([2]; gene TRIM2 (ENSG00000109654)): −2.147; log2(Translational Efficiency) ([2]; gene TUBGCP4 (ENSG00000137822)): −0.5346; log2(Translational Efficiency) ([2]; gene UBE2G1 (ENSG00000132388)): −0.3367; log2(Translational Efficiency) ([2]; gene USP20 (ENSG00000136878)): −0.2066; log2(Translational Efficiency) ([2]; gene ZNF48 (ENSG00000180035)): −0.5828; log2(Translational Efficiency) ([2]; gene ZNF800 (ENSG00000048405)): −0.2711
